Here are results for 7 compounds from article PMC7560342, “In Vitro and In Vivo Evaluation of the Toxic Effects of Dodecylguanidine Hydrochloride” (Toxics, 2020).

Each structure is given as a SMILES string. Values after ≈ are worked out from the molar mass of the structure shown.

For series [1], the system named is A549 cells. Put plainly: cells. The class given is cell-based, Human. As to conditions: 24 h exposure, WST assay; for IC50: Homo sapiens, read-out: IC50 (half inhibitory concentration by cell viability assay). The procedure: Human adenocarcinomic alveolar epithelial (A549) cells were obtained from the Korea Cell Line Bank (Seoul, Korea). Cells were grown in RPMI 1640 medium (Thermo Fisher Scientific, Waltham, MA, USA), containing 10% heat-inactivated fetal bovine serum (Thermo Fisher Scientific, Waltham, MA, USA) and 1% penicillin-streptomycin (Thermo Fisher Scientific, Waltham, MA, USA) under standard cell culture conditions (37 °C, 5% CO2, and 90% humidity).
A549 cells (1 × 10^4 cells) were incubated in 96-well plates overnight, and various concentrations (1, 10, 100, 1000, and 5000 μg/mL) of the eight selected chemicals were added to the cell culture medium. After 24 h of incubation, cell morphology was observed by optical microscopy, and cell viability was evaluated using EZ-Cytox kit (DoGenBio, Seoul, Korea) by quantifying purple formazan crystals. The membrane integrity was examined using an EZ-lactate dehydrogenase (LDH) kit (DoGenBio, Seoul, Korea) to measure the LDH level released from the cytosol into the culture medium. Absorbance was measured using a microplate reader (Tecan, Salzburg, Austria) at a wavelength of 450 nm.

Series [2] relates to rat. Details: method as in earlier work. To be noted: cited from earlier work.
The test system of series [3] is rabbit. Details: method as in earlier work. As to conditions: cited from earlier work.
Series [4] deals with rat. Details: method as in earlier work. To be noted: 1 h; cited from earlier work.

For the compound `N#CNC(=N)N` [CG, Cyanoguanidine], the IC50 in series [1] was above 5000 µg/mL. For `N=C(N)N.N=C(N)N.O=C(O)O` [GC, Guanidine carbonate], the “IC50 (half inhibitory concentration by cell viability assay)” value in series [1] turned out to be 1822 µg/mL. The same measure, in the same setting: under `Cl.N=C(N)N` [GH, Guanidine monohydrochloride] stands 2373 µg/mL; under `N=C(N)N.O=[N+]([O-])O` [GN, Guanidine mononitrate], 3417 µg/mL.

Consider `N=C(N)N.NS(=O)(=O)O` [GS, Guanidine sulfamate], for which the “IC50 (half inhibitory concentration by cell viability assay)” value in series [1] is 2722 µg/mL. `CN(C)C(=N)N(C)C` [TMG, 1,1,3,3-Tetramethylguanidine]: the IC50 in series [1] amounted to 1090 µg/mL (≈ 9.47 mM).

On to `CCCCCCCCCCCCNC(=N)N` [dodine, dodecylguanidine acetate], for which the “Acute oral toxicity LD50” value in series [2] is 1931 mg/kg. Also, in series [3], the “Dermal toxicity LD50” value is above 2000 mg/kg. Further, the “Inhalation toxicity LC50” value in series [4] is 1.05 µg/mL.
